The test system of test [1] is CD8+ T-cells (PBMC from HLA-A2 positive renal cell carcinoma patients). Description: quantitative PCR assay of γ-Interferon-mRNA production after 7 day in vitro sensitization with peptide. Type of test: cell-based, human. The conditions noted are these: PBMC from 6 HLA-A2 positive renal cell carcinoma patients. How it is done:
PBMC from 6 HLA-A2 positive renal cell carcinoma patients were tested for reaction against four of the relevant peptides: HLA-A*02-restricted ligands from adipophilin, keratin 18, K1AA0367 and met-proto-oncogene. In doing so, a very sensitive quantitative PCT assay was carried out to detect γ-Interferon-mRNA production by CD8^+ T-cells following a 7 day-in vitro-sensitization with peptide.

Test [2] concerns CD8+ T-lymphocytes (PBMC). In words: staining of PBMC with HLA-A*0201 tetramers, flow cytometry. Type of test: cell-based, human. The text has this:
Peripheral blood mononuclear cells (in the following PBMC) from two healthy donors (HDI and HD2), which were serologically typed as CMV-positive, were isolated by gradient centrifugation (FicoLite H) and frozen.
HLA-A *0201 tetrameric complexes were produced as described by Altman et al., 1996, Phenotypic analysis of antigen-specific T-lymphocytes, Science 274: 94-96, as follows: The HLA-A2-binding peptides used for the refolding were […] (SEQ ID NO: 1) from keratin 18 and […] (SEQ ID NO: 2) from pp65 HCMVA. Tetramers were assembled by mixing biotinylated monomers with streptavidin-PE or streptavidin-APC and 2-3×10^6 cells were incubated 30 min at 4° C. with both tetramers: 10 μg/ml for each monomer in PBS, 0.01% NaN3, 2 mM EDTA, 50% fetal calf serum). Then, monoclonal antibodies Anti-CD4-FITC (Coulter-Immunotech) and Anti-CD8-PerCP (Becton Dickinson) were added for 20 min. After three washes, samples were fixed in FACS buffer, 1% formaldehyde. Four-color analysis was performed on a FACScalibur cytometer (Becton Dickinson).
Staining of PBMC of tumor patients and healthy individuals with HLA-A*0201 tetramers was performed with tetramers reconstituted either with adipophilin, keratin 18 or met-proto-oncogene.
Dot plots show samples from one of three independent experiments for 1×10^6 PBMC. In the plots, percentage of tetramer^+-cells within the CD8^+ CD4^− population are indicated.
In general terms: In flow cytometry, cells or beads pass a laser one at a time.

Consider “SVASTITGV (listed as Homo sapiens) [adipophilin, HLA-A*02-restricted ligand from adipophilin]”, for which the “γ-Interferon-mRNA production by CD8+ T-cells (response to peptide)” value (shortened to “γ-Interferon-mRNA production”) in test [1] is “Sporadic responses”. Take “ALLNIKVKL (listed as Homo sapiens) [keratin 18]”: the “γ-Interferon-mRNA production” value in test [1] is given as “Sporadic responses”. For the same sequence, in test [2] (HLA-A*0201 tetramer staining of PBMC of healthy individuals), the “healthy individuals in whom a significant specific CD8+ T-lymphocyte population was found” value was 4 out of 22. With “YVDPVITSI (listed as Homo sapiens) [met-proto-oncogene, HLA-A*02-restricted ligand derived from met proto-oncogene]”, the “γ-Interferon-mRNA production” value in test [1] is reported as “Sporadic responses”. As for “NLVPMVATV [CMV tetramer, reference compound]”, the “staining of the keratin 18-specific CD8+ population with the tetramer” value in test [2] (simultaneous staining with HLA-A2/keratin 18-PE and HLA-A2/CMV-APC tetramers, specificity control) was “did not stain”.

For the origin of these results see patent US9783849B2, “Method for identifying immunoreactive peptides” (immatics biotechnologies GmbH, priority 2002, dated 2017).
